These results are taken from ChEMBL document CHEMBL1201862, “PubChem BioAssay data set” (2004).

The structures appear in SMILES notation.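 Compound exposure: 48 hours, 5 concentrations, 96-well plates. At the GI50, growth is halved.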 Active and inactive are the calls of the source. Cut-off read from the data, not from the text of the source: active = GI50 up to about 1.1 µM and inactive = higher.

Common to all, as to assay: NCI anticancer screen, dose series, 48 h
Experiment [1] has as its system SW-620.
Experiment [2] relates to HCT-15.
Experiment [3] has as its system UO-31.
In experiment [4] the test system is OVCAR-5.
Experiment [5] relates to A549.
For experiment [6], the system named is DMS-273.
Experiment [7] deals with LOX IMVI.
Experiment [8] concerns OVCAR-4.
Experiment [9] has as its system CAKI-1.
Experiment [10] concerns OVCAR-8.
Experiment [11] has as its system NCI-H226.
Experiment [12] has as its system DMS-114.
In experiment [13] the test system is CCRF-CEM.
In experiment [14] the test system is SNB-75.
Experiment [15] deals with RPMI-8226.
For experiment [16], the system named is KM-20L2.

With `COc1ccc(NN=C2C(=O)CCC2=O)cc1`, the GI50 is > 100 µM (inactive) in [1]; greater than 100 µM in experiment [2]; 98.9 µM (inactive) in experiment [3]; > 100 µM (inactive) in experiment [4]; 18.3 µM (inactive) in [5]; > 100 µM (inactive) in [6]. The GI50 is > 100 µM (inactive) in experiment [7]; 37.5 µM (inactive) in experiment [8]; > 100 µM (inactive) in [9]; > 100 µM (inactive) in [10]; > 100 µM (inactive) in experiment [11]; > 100 µM (inactive) in experiment [12]. Besides, the GI50 in experiment [13] and in [14] was > 100 µM (inactive) each time.

For `CCOc1cc(/C=C/C=C/c2ccc(N(C)C)cc2)[s+]c2ccccc12`, the GI50 in [1] is 30.7 µM (inactive); in experiment [2] it was 13.8 µM; in experiment [4] it was > 100 µM (inactive); in experiment [5], 11.4 µM (inactive); in experiment [6], 9.31 µM (inactive); in experiment [7], 15.4 µM (inactive). In addition, the GI50 was 16 µM (inactive) in experiment [8]; 23.7 µM (inactive) in [9]; 25.6 µM (inactive) in experiment [10]; 3.2 µM (inactive) in experiment [15]; 71 µM (inactive) in experiment [16]; 5.27 µM (inactive) in [12]. Besides, the GI50 in experiment [13] is 3.38 µM (inactive); in experiment [14] it was 28.4 µM (inactive).

`O=C(NC(Cc1ccccc1)C(=O)CCl)OCc1ccccc1` (stereo unspecified): the GI50 in experiment [1] was 4.26 µM (inactive); in experiment [2], 5 µM; in experiment [3] it was 12.9 µM (inactive); in [4] it was 11.8 µM (inactive); in [5], 18.2 µM (inactive); in experiment [6], 5.02 µM (inactive). Further, the GI50 in experiment [7] was 1.76 µM (inactive); in experiment [9], 5.15 µM (inactive); in [10], 4.38 µM (inactive); in experiment [15], 4.06 µM (inactive); in [16], 7.69 µM (inactive); in experiment [12], 1.22 µM (inactive). For the same molecule, the GI50 in experiment [13] is 2.74 µM (inactive); in experiment [14], 11.5 µM (inactive).

On to `O=C1CCC2(c3ccc(Cl)cc3)Nc3ccccc3N12` (stereo unspecified), for which the GI50 in [1] was > 100 µM (inactive); in [2], 97.1 µM; in [3] it was 49.7 µM (inactive); in experiment [4] it was > 100 µM (inactive); in experiment [5], 52.6 µM (inactive); in experiment [7], > 100 µM (inactive). For the same molecule, the GI50 was 75 µM (inactive) in experiment [8]; > 100 µM (inactive) in experiment [10]; 53.7 µM (inactive) in [15]; 67.9 µM (inactive) in experiment [11]; > 100 µM (inactive) in experiment [16]; 45.2 µM (inactive) in experiment [12]. Further, the GI50 in experiment [14] is 19.3 µM (inactive).

In the case of `Cc1coc2c1C(=O)C(=O)c1ccccc1-2`, the GI50 was 1.41 µM (inactive) in experiment [1]; 1.27 µM in experiment [2]; 3.1 µM (inactive) in experiment [3]; 2.11 µM (inactive) in experiment [4]; 2.04 µM (inactive) in [5]; 1.54 µM (inactive) in [6]. Further, the GI50 is 0.305 µM (active) in experiment [7]; 1.82 µM (inactive) in experiment [8]; 1.86 µM (inactive) in [9]; 0.322 µM (active) in [10]; 1.21 µM (inactive) in experiment [11]; 3.36 µM (inactive) in experiment [16]. For the same molecule, the figures for the GI50 in [12], in experiment [13] and in experiment [14] were 0.161 µM (active), 2.22 µM (inactive) and 1.72 µM (inactive), respectively.

As to `Cc1ccccc1C(=O)c1ccccc1O`, the GI50 in experiment [1] was > 100 µM (inactive); in experiment [2], greater than 100 µM; in [3], 24.6 µM (inactive); in [4], > 100 µM (inactive); in [5], > 100 µM (inactive); in experiment [6] it was > 100 µM (inactive). In addition, the GI50 was > 100 µM (inactive) in experiment [7]; > 100 µM (inactive) in experiment [8]; > 84.3 µM (inactive) in experiment [9]; > 100 µM (inactive) in experiment [10]; > 100 µM (inactive) in experiment [11]; > 100 µM (inactive) in [16]. The values for the GI50 in experiment [12], in experiment [13] and in [14] were > 100 µM (inactive), > 100 µM (inactive) and > 79.6 µM (inactive), respectively.

Take `COC(=O)C1=CC(=O)[C@@H]2CCCC[C@H]12`: the GI50 was > 100 µM (inactive) in [1]; greater than 100 µM in [2]; > 100 µM (inactive) in experiment [3]; > 100 µM (inactive) in [5]; > 100 µM (inactive) in [6]; > 100 µM (inactive) in experiment [8]. For the same molecule, the GI50 in experiment [9], in experiment [10], in experiment [15], in experiment [11], in experiment [16] and in experiment [12] was > 100 µM (inactive) throughout. The GI50 in [13] and in experiment [14] was > 100 µM (inactive) in each case.

As for `CC(=O)N(CCN)CCN`, the GI50 in experiment [1] is > 10 µM (inactive); in experiment [2], greater than 100 µM; in [3], > 10 µM (inactive); in experiment [5], > 10 µM (inactive); in experiment [6], > 10 µM (inactive); in experiment [7], > 10 µM (inactive). The GI50 in [8], in [9], in experiment [10], in [15], in experiment [16] and in experiment [12] was > 10 µM (inactive) throughout. In addition, the GI50 is > 10 µM (inactive) in [13] and > 100 µM (inactive) in [14].

In the case of `COc1cccc(C2SCc3nc4ccccc4n32)c1` (stereo unspecified), the GI50 was 46.6 µM (inactive) in [1]; 38.8 µM in experiment [2]; 22.1 µM (inactive) in [3]; 58.9 µM (inactive) in experiment [4]; 34.8 µM (inactive) in experiment [5]; 39.1 µM (inactive) in [6]. The GI50 is 54.6 µM (inactive) in [7]; > 100 µM (inactive) in [8]; 37.9 µM (inactive) in [9]; 57.9 µM (inactive) in [10]; 51.4 µM (inactive) in experiment [11]; 21.3 µM (inactive) in experiment [12]. The figures for the GI50 in experiment [13] and in experiment [14] were > 100 µM (inactive) and 53 µM (inactive), respectively.

In the case of `COc1cc2c(cc1OC)[C@@H](C(O)c1ccccc1)NCC2` (stereo partly specified), the GI50 in experiment [1] is > 100 µM (inactive); in experiment [2] it was greater than 100 µM; in experiment [3] it was > 100 µM (inactive); in experiment [4], > 100 µM (inactive); in experiment [5] it was > 100 µM (inactive); in experiment [6], > 100 µM (inactive). Besides, the GI50 in experiment [7], in experiment [8], in experiment [9], in [10], in experiment [11] and in [16] was > 100 µM (inactive) each time. For the same molecule, the GI50 in [12] is > 100 µM (inactive); in experiment [13], > 100 µM (inactive); in experiment [14], 54.6 µM (inactive).

As for `c1ccc(-c2ccnc3c2ccc2c(-c4ccccc4)ccnc23)cc1`, the GI50 in experiment [1] was 3.72 µM (inactive); in experiment [2] it was 1.06 µM; in [3] it was 0.5 µM (active); in experiment [4], 1.04 µM (active); in experiment [5], 0.875 µM (active); in experiment [6], 2.56 µM (inactive). Moreover, the GI50 in experiment [7] is 2.31 µM (inactive); in experiment [8], 2.28 µM (inactive); in [10], 1.48 µM (inactive); in [11] it was 1.65 µM (inactive); in experiment [16], 3.73 µM (inactive); in experiment [12], 0.382 µM (active). For the same molecule, the GI50 in experiment [13] is 0.465 µM (active); in experiment [14] it was 2.92 µM (inactive).

For the molecule `O=c1c2cccnc2ncn1CCCN1CCCCC1`, the GI50 in experiment [1], in experiment [3], in [4], in experiment [5], in experiment [6] and in experiment [7] was > 100 µM (inactive) each time. Moreover, the GI50 in experiment [8], in experiment [9], in experiment [10], in experiment [11], in [12] and in [13] was > 100 µM (inactive) each time. For the same molecule, the GI50 in experiment [14] was > 100 µM (inactive).

On to `COC(OC)c1cc2c(cc1C=O)OCO2`, for which the GI50 in [1] was > 100 µM (inactive); in experiment [3], 45.3 µM (inactive); in experiment [4], > 100 µM (inactive); in [5] it was > 100 µM (inactive); in experiment [6], > 100 µM (inactive); in [8], > 100 µM (inactive). The GI50 is 34.1 µM (inactive) in [9]; > 100 µM (inactive) in experiment [10]; > 100 µM (inactive) in experiment [11]; > 100 µM (inactive) in [16]; > 100 µM (inactive) in experiment [12]; > 100 µM (inactive) in experiment [13]. In addition, in experiment [14], the GI50 was 21.2 µM (inactive).

`CCCCCCCCCCCCC(=O)CCCCC(=O)O`: the GI50 was 30.3 µM (inactive) in experiment [1]; 23.9 µM (inactive) in experiment [3]; 18.2 µM (inactive) in experiment [4]; 18.3 µM (inactive) in experiment [5]; 33.4 µM (inactive) in experiment [6]; 21 µM (inactive) in [7]. Further, the GI50 was 58.5 µM (inactive) in experiment [8]; 32.5 µM (inactive) in [9]; 17.5 µM (inactive) in [10]; 16.7 µM (inactive) in experiment [15]; 22.9 µM (inactive) in experiment [11]; 18.8 µM (inactive) in experiment [12]. For the same molecule, the results for the GI50 in experiment [13] and in [14] were 33.7 µM (inactive) and 23.4 µM (inactive), respectively.

For `Cc1ccc(C2CC(c3ccc([N+](=O)[O-])cc3)=Nc3ccccc3S2)cc1` (stereo unspecified), the GI50 in experiment [1] was 20 µM (inactive); in [2], 18 µM; in experiment [3] it was 18.9 µM (inactive); in experiment [4] it was 44.5 µM (inactive); in [5], 22.3 µM (inactive); in experiment [7] it was 15.3 µM (inactive). Besides, the GI50 in experiment [8] was 23.7 µM (inactive); in experiment [9] it was 31 µM (inactive); in experiment [10], 22.5 µM (inactive); in experiment [15], 15.6 µM (inactive); in experiment [11] it was 44.6 µM (inactive); in experiment [16] it was 34.3 µM (inactive). Also, the GI50 in experiment [12] is 16.5 µM (inactive); in experiment [13], 12.9 µM (inactive); in experiment [14] it was 21.4 µM (inactive).
